Experimental data taken from ChEMBL document CHEMBL1201862, “PubChem BioAssay data set” (2004).
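A five-concentration, 48-hour dose response in 96-well plates underlies each endpoint, interpolated linearly between surrounding concentrations. GI50: concentration for 50% inhibition of growth.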 The source made the active and inactive calls. Rule as the data show it: active = GI50 up to about 1.1 µM and inactive = higher.

How the values were obtained:
Test in all cases: NCI anticancer screen, dose series, 48 h
786-0 = system: 786-0
A498 = system: A498
A549 = system: A549
ACHN = system: ACHN
CCRF-CEM = system: CCRF-CEM
COLO 205 = system: COLO 205
DLD-1 = system: DLD-1
DMS-114 = system: DMS-114
DMS-273 = system: DMS-273
EKVX = system: EKVX
HCC 2998 = system: HCC 2998
HCT-116 = system: HCT-116
HCT-15 = system: HCT-15
HL-60 = system: HL-60
HOP-18 = system: HOP-18
HOP-62 = system: HOP-62
HOP-92 = system: HOP-92
HT-29 = system: HT-29
IGROV-1 = system: IGROV-1
K562 = system: K562
KM-20L2 = system: KM-20L2
KM12 = system: KM12
LOX IMVI = system: LOX IMVI
LXFL 529 = system: LXFL 529
M14 = system: M14
M19-MEL = system: M19-MEL
Malme-3M = system: Malme-3M
NCI-H226 = system: NCI-H226
NCI-H23 = system: NCI-H23
NCI-H460 = system: NCI-H460
NCI-H522 = system: NCI-H522
OVCAR-3 = system: OVCAR-3
OVCAR-4 = system: OVCAR-4
OVCAR-5 = system: OVCAR-5
OVCAR-8 = system: OVCAR-8
RXF 393 = system: RXF 393
RXF 631 = system: RXF 631
SF-268 = system: SF-268
SF-295 = system: SF-295
SF-539 = system: SF-539
SK-MEL-28 = system: SK-MEL-28
SK-MEL-2 = system: SK-MEL-2
SK-MEL-5 = system: SK-MEL-5
SK-OV-3 = system: SK-OV-3
SN12C = system: SN12C
SNB-19 = system: SNB-19
SNB-75 = system: SNB-75
SNB-78 = system: SNB-78
SW-620 = system: SW-620
TK-10 = system: TK-10
U-251 = system: U-251
UACC-257 = system: UACC-257
UACC-62 = system: UACC-62
UO-31 = system: UO-31
XF498 = system: XF498

Question: `CC(=O)OCCOCNC(=S)N/N=C/c1cc([N+](=O)[O-])ccc1O` was tested. Which GI50 (786-0) did it give?
Answer: The GI50 was > 100 µM (inactive).

Question: And the GI50 (A498)?
Answer: The GI50 was > 100 µM (inactive).

Question: What about the GI50 (A549) of the same molecule?
Answer: Its GI50 is > 100 µM (inactive).

Question: And the GI50 (ACHN)?
Answer: The GI50 was > 100 µM (inactive).

Question: What about the GI50 (CCRF-CEM) of the same molecule?
Answer: Its GI50 is 56.6 µM (inactive).

Question: What about the GI50 (COLO 205) of the same molecule?
Answer: The GI50 was 75 µM (inactive).

Question: And the GI50 (DLD-1)?
Answer: Its GI50 is > 100 µM (inactive).

Question: And the GI50 (DMS-114)?
Answer: The GI50 was 30.7 µM (inactive).

Question: And the GI50 (DMS-273)?
Answer: The GI50 was > 100 µM (inactive).

Question: And the GI50 (EKVX)?
Answer: Its GI50 is > 100 µM (inactive).

Question: And the GI50 (HCC 2998)?
Answer: Its GI50 is 72.1 µM (inactive).

Question: What about the GI50 (HCT-116) of the same molecule?
Answer: The GI50 was 64.3 µM (inactive).

Question: What about the GI50 (HCT-15) of the same molecule?
Answer: The GI50 was > 100 µM.

Question: And the GI50 (HL-60)?
Answer: Its GI50 is > 100 µM (inactive).

Question: And the GI50 (HOP-18)?
Answer: Its GI50 is > 100 µM (inactive).

Question: And the GI50 (HOP-62)?
Answer: Its GI50 is > 100 µM (inactive).

Question: And the GI50 (HOP-92)?
Answer: The GI50 was > 100 µM (inactive).

Question: What about the GI50 (HT-29) of the same molecule?
Answer: Its GI50 is > 100 µM (inactive).

Question: What about the GI50 (IGROV-1) of the same molecule?
Answer: Its GI50 is > 100 µM (inactive).

Question: And the GI50 (K562)?
Answer: The GI50 was > 100 µM (inactive).

Question: What about the GI50 (KM-20L2) of the same molecule?
Answer: Its GI50 is 61.1 µM (inactive).

Question: What about the GI50 (KM12) of the same molecule?
Answer: Its GI50 is > 100 µM (inactive).

Question: And the GI50 (LOX IMVI)?
Answer: Its GI50 is > 100 µM (inactive).

Question: And the GI50 (LXFL 529)?
Answer: Its GI50 is 93.8 µM (inactive).

Question: And the GI50 (M14)?
Answer: The GI50 was 86.7 µM (inactive).

Question: What about the GI50 (M19-MEL) of the same molecule?
Answer: The GI50 was > 100 µM (inactive).

Question: What about the GI50 (Malme-3M) of the same molecule?
Answer: Its GI50 is > 100 µM (inactive).

Question: What about the GI50 (NCI-H226) of the same molecule?
Answer: Its GI50 is > 100 µM (inactive).

Question: And the GI50 (NCI-H23)?
Answer: Its GI50 is > 100 µM (inactive).

Question: And the GI50 (NCI-H460)?
Answer: Its GI50 is > 100 µM (inactive).

Question: And the GI50 (NCI-H522)?
Answer: Its GI50 is 30.5 µM (inactive).

Question: What about the GI50 (OVCAR-3) of the same molecule?
Answer: Its GI50 is 42.5 µM (inactive).

Question: And the GI50 (OVCAR-4)?
Answer: Its GI50 is 84.5 µM (inactive).

Question: And the GI50 (OVCAR-5)?
Answer: Its GI50 is > 100 µM (inactive).

Question: What about the GI50 (OVCAR-8) of the same molecule?
Answer: Its GI50 is 90.2 µM (inactive).

Question: What about the GI50 (RXF 393) of the same molecule?
Answer: The GI50 was > 100 µM (inactive).

Question: And the GI50 (RXF 631)?
Answer: Its GI50 is > 100 µM (inactive).

Question: And the GI50 (SF-268)?
Answer: The GI50 was 77.4 µM (inactive).

Question: And the GI50 (SF-295)?
Answer: Its GI50 is > 100 µM (inactive).

Question: And the GI50 (SF-539)?
Answer: Its GI50 is > 100 µM (inactive).

Question: And the GI50 (SK-MEL-28)?
Answer: The GI50 was > 100 µM (inactive).

Question: What about the GI50 (SK-MEL-2) of the same molecule?
Answer: The GI50 was > 100 µM (inactive).

Question: And the GI50 (SK-MEL-5)?
Answer: The GI50 was > 100 µM (inactive).

Question: What about the GI50 (SK-OV-3) of the same molecule?
Answer: The GI50 was > 100 µM (inactive).

Question: And the GI50 (SN12C)?
Answer: The GI50 was > 100 µM (inactive).

Question: And the GI50 (SNB-19)?
Answer: The GI50 was > 100 µM (inactive).

Question: What about the GI50 (SNB-75) of the same molecule?
Answer: The GI50 was > 100 µM (inactive).

Question: What about the GI50 (SNB-78) of the same molecule?
Answer: Its GI50 is > 100 µM (inactive).

Question: What about the GI50 (SW-620) of the same molecule?
Answer: The GI50 was 84.9 µM (inactive).

Question: What about the GI50 (TK-10) of the same molecule?
Answer: The GI50 was > 100 µM (inactive).

Question: And the GI50 (U-251)?
Answer: Its GI50 is > 100 µM (inactive).

Question: And the GI50 (UACC-257)?
Answer: The GI50 was > 100 µM (inactive).

Question: What about the GI50 (UACC-62) of the same molecule?
Answer: The GI50 was 69.8 µM (inactive).

Question: What about the GI50 (UO-31) of the same molecule?
Answer: The GI50 was > 100 µM (inactive).

Question: What about the GI50 (XF498) of the same molecule?
Answer: The GI50 was > 100 µM (inactive).
